Assay results published in ChEMBL document CHEMBL6103671, “Novel Piperazine Derivatives as Selective Antagonists of GluN2B-Containing NMDARs under Acidic pH Conditions” (ACS Med Chem Lett, 2025).

Experiments:
Format in all cases: cell-based
[1] = Antagonist activity at human GluN1-1a/[…] receptor expressed in Xenopus laevis oocytes assessed as inhibition of glutamate/glycine-induced current at pH 7.6 with -40 mV holding potential by two-electrode voltage-clamp method; conditions: Oocyte
Oocyte = assay: Selectivity ratio of IC50 for antagonist activity at human GluN1-1a/GluN2A receptor expressed in Xenopus laevis oocytes at pH 7.6 to antagonist activity at human GluN1-1a/GluN2A receptor expressed in Xenopus laevis oocytes at pH 6.9
[2] = Antagonist activity at human GluN1-1a/[…] receptor expressed in Xenopus laevis oocytes assessed as inhibition of glutamate/glycine-induced current at pH 6.9 with -40 mV holding potential by two-electrode voltage-clamp method; conditions: Oocyte

Compound	IC50 [1] [nM]	Ratio IC50 (Oocyte)	IC50 [2] [nM]
NC(=O)Nc1ccc(OC[C@H](O)CN2CCN(c3ccc(Cl)c(Cl)c3)CC2)cc1	132	4.4	30
O=C1CCc2cc(OC[C@H](O)CN3CCN(c4ccc(C(F)(F)F)cc4)CC3)ccc2N1 [NP-10679]	142	6.2	23
NC(=O)Nc1ccc(OC[C@@H](O)CN2CCN(c3ccc(Cl)cc3)CC2)cc1	452	9.8	46
NC(=O)Nc1ccc(OC[C@H](O)CN2CCN(c3ccc(Cl)cc3)CC2)cc1	60	3.2	19
O=C1CCc2cc(OC[C@@H](O)CN3CCN(c4ccc(C(F)(F)F)cc4)CC3)ccc2N1	717	6.5	111
NC(=O)Nc1ccc(OC[C@@H](O)CN2CCN(c3ccc(Cl)c(Cl)c3)CC2)cc1	947	9.2	103
